Data on 2 molecules can be found in EP3685668B1, “COMPOSITION COMPRISING ACIBENZOLAR-S-METHYL AS EFFECTIVE INGREDIENT FOR CONTROLLING BURSAPHELENCHUS XYLOPHILUS DISEASE AND METHOD FOR CONTROLLING BURSAPHELENCHUS XYLOPHILUS USING SAME” (Industry Foundation of Chonnam National University, priority 2017, dated 2019).

Test [1] has as its system Bursaphelenchus xylophilus. The test is described as follows: Occurrence of pine wilt disease after trunk injection of induced resistance candidate materials, in vivo test in young red pine trees. To be noted: red pine tree (Pinus densiflora), 30 days after inoculation; for Occurrence rate of pine wilt disease: Number of pine trees showing wilt symptoms / Number of pine trees used for the test: trunk injection 100 µℓ per tree; for Number of pine trees showing wilt symptoms only at growing points of a stem: trunk injection. The method, then:
By using the 15 types of an induced resistance elicitors which have been known to induce the plant resistance against various diseases as candidates, their controlling effect against pine wilt disease was examined. The control efficacy of candidates against pine wilt disease was analyzed according to an in vivo test using red pine tree (Pinus densiflora) which was 2-year old young pine trees (diameter of 5.5 mm or so, and height of about 35 mm).
As a candidate group of an induced resistance material, two kinds of acibenzolar-S-methyl (ASM), TDL (Tiadinil), ITL (Isotianil), PBZ (Probenzole), AZO (Azoxystrobin), VMA (Validamycin A), MeJA (Methyl jasmonate), BABA (DL-3-aminobutyric acid), 2,3-BDO (2,3-Butanediol), SA (salicyclic acid), GABA (r-Aminobutyric acid), glucan (Glucan), ER (Ergosterol), and AZA (Azelaic acid) were used. Only the use of acibenzolar-S-methyl is according to the invention. Injection of the chemicals was carried out by trunk injection method, i.e., at an angle of 45°, a borehole was created by using an electric drill with thickness of 1.5 mm on a pine stem part that is 5 to 10 cm above the soil surface, a tip (200 µℓ) was inserted to the hole, and, after dissolving the candidate material at concentration level of 200, 20, or 2 µg/mℓ in each solvent, the solution was injected in an amount of 100 µℓ per pine tree. After the injection of the chemical agent, the end part of the tip was sealed with parafilm.
The pine tree wilt nematodes (Bursaphelenchus xylophilus, National Institute of Forest Science (NIFoS), South Korea) was incubated at 25°C by feeding them with Botrytis cinerea, which have been cultured on a potato dextrose agar (PDA) medium, and after one week incubation, they were collected by Baermann funnel method and were adjusted to the level of 20,000 worms/mℓ by examining the number of the worms under an optical microscope. One week after the chemical treatment, the inoculation of the pine tree wilt nematodes was carried out by tree barking inoculation of 100 µℓ, i.e., 2,000 worms, per tree, and the result was determined 30 days after the inoculation. […] [Table 1] Occurrence rate of pine wilt disease in candidate group of induced resistance materials

For the next test, the system named is Cytochrome_P450. The test is described as follows: qRT-PCR expression of induced resistance gene in pine tree callus. The note with it: for Expression of induced resistance gene, Cytochrome_P450: 24 hours. In kind it is cell-based. As to the method:
For in vitro analysis of induced resistance, the expression of PR genes and other plant defense-related genes was determined, which are evolved in various defense mechanisms including induced resistance. The primers of sixteen induced resistance-related genes of pine tree used in this invention were listed in the below and elongation factor_1 alpha were used as a reference gene. […] The primer list of defense resistance-related genes
After the treatment with 200 µg / mℓ of candidates of the selected induced resistance material, expression of the induced resistance-related gene in pine callus was determined by qRT-PCR using the primer pairs of defense resistance-related genes in Table 4. As a candidate group of an induced resistance material in pine tree, acibenzolar-S-methyl (ASM), TDL (Tiadinil), ITL (Isotianil), PBZ (Probenzole), AZO (Azoxystrobin), VMA (Validamycin A), MeJA (Methyl jasmonate), BABA (DL-3-aminobutyric acid), 2,3-BDO (2,3-Butanediol), GABA (r-Aminobutyric acid), glucan (Glucan), ER (Ergosterol), and AZA (Azelaic acid) were used. For the in vitro analysis of the expression of induced resistance gene in pine callus, the selected induced resistance materials were applied with 500 µℓ of LM liquid medium on a surface of pine tree callus (100 mg) in 12-well microplate to give final concentration of 200 µg/mℓ. Then, the callus surface was sufficiently reacted for 24 hours with the candidate of pine tree induced resistance material by shaking at 50 rpm in a 25 °C shaking incubator under dark condition. RNAs were extracted from the callus after completion of the reaction with an induced resistance material, followed by synthesis of cDNAs. Then, by carrying out qRT-PCR, the expression of induced resistance genes was determined.
Thus, the following tests were carried out using acibenzolar-S-methyl only. Expression of the induced resistance genes at different culture time after the chemical treatment was examined. For the in vitro assay, LM medium containing pine tree callus was treated with acibenzolar-S-methyl at concentration of 200 µg / mℓ, followed by reaction for 1 day, 7 days, or 14 days in a 25°C shaking incubator under dark condition. RNAs were extracted from the callus after the reaction followed by synthesis of cDNAs. Then, by carrying out qRT-PCR, the expression of the induced resistance genes was determined. Depending on reaction time after the treatment, i.e., after 1 day, 7 days, or 14 days, the expression of the obtained induced resistance genes was examined. […]
For the surface treatment (spraying treatment) of pine tree callus, 100 mg of the pine tree callus were dunked in 500 µℓ LM liquid medium and 500 µℓ of 400 µg/mℓ acibenzolar-S-methyl were sprayed (i.e., sprayed 5 times, 100 µℓ for each spraying, 200 µg/mℓ) on the callus surface. Then, the pine callus sprayed with acibenzolar-S-methyl was reacted for 24 hours by shaking at 50 rpm in a 25°C shaking incubator under dark condition. After the completion of the 24-hour reaction, RNAs were extracted from the callus followed by synthesis of cDNAs. Then, by carrying out qRT-PCR, expression of the induced resistance gene was determined.
Background: In qPCR the cycle at which signal appears reflects the starting amount.

As to `CSC(=O)c1cccc2nnsc12` [ASM, acibenzolar-S-methyl], the “Occurrence rate of pine wilt disease: Number of pine trees showing wilt symptoms / Number of pine trees used for the test” value in test [1] (2 µg/mℓ) is on record as 1/3; in test [1] (20 µg/mℓ) it was 1/3; in test [1] (200 µg/mℓ) it was 0/3. Also, the “Number of pine trees showing wilt symptoms only at growing points of a stem” value in test [1] (2 µg/mℓ) and in test [1] (20 µg/mℓ) was 1 each time. In addition, the “Expression of induced resistance gene, Cytochrome_P450” value with Cytochrome_P450 (200 µg/mℓ) was 1.71; in the test on Cytochrome_P450 (200 µg/mℓ, Direct supplying as a medium component), 9.99; in the test on Cytochrome_P450 (200 µg/mℓ, Spraying), 1.71. Besides, the “Gene expression level, Cytochrome_P450” value with Cytochrome_P450 (200 µg/mℓ, After 1 day) is reported as 7.21; in the test on Cytochrome_P450 (200 µg/mℓ, After 7 days), 0.85; in the test on Cytochrome_P450 (200 µg/mℓ, After 14 days), 0.04; in the test on Cytochrome_P450 (concentration series, 2 µg/mℓ), 1.231; with Cytochrome_P450 (concentration series, 20 µg/mℓ), 1.173; in the test with Cytochrome_P450 (concentration series, 200 µg/mℓ), 1.231.
As for `CC/C=C\CC1C(=O)CCC1CC(=O)OC` (stereo not drawn) [MeJA, Methyl jasmonate], the “Occurrence rate of pine wilt disease: Number of pine trees showing wilt symptoms / Number of pine trees used for the test” value in test [1] (2 µg/mℓ) is reported as 3/3; in test [1] (20 µg/mℓ) it was 2/3; in test [1] (200 µg/mℓ), 2/3. Also, the “Number of pine trees showing wilt symptoms only at growing points of a stem” value came to 1 in test [1] (2 µg/mℓ), 1 in test [1] (20 µg/mℓ) and 2 in test [1] (200 µg/mℓ). The “Expression of induced resistance gene, Cytochrome_P450” value in the test on Cytochrome_P450 (200 µg/mℓ) worked out at 0.3.
